Results taken from paper PMC11389776, “Positive allosteric modulation of a GPCR ternary complex” (Science Advances, 2024).

How the values were obtained:
M2 mAChR [1] = molecular target: T1, M2 mAChR (Homo sapiens, UniProt P08172); test: Gi1 (TRUPATH) protein activation assay in M2 mAChR FlpIn CHO cells; format: cell-based; conditions: for Log τ: operational efficacy, operational model of agonism, LY211 value is an estimate (saturation not reached)
T1 construct: expressed in transfected cells
T1 sequence (P08172 1-466): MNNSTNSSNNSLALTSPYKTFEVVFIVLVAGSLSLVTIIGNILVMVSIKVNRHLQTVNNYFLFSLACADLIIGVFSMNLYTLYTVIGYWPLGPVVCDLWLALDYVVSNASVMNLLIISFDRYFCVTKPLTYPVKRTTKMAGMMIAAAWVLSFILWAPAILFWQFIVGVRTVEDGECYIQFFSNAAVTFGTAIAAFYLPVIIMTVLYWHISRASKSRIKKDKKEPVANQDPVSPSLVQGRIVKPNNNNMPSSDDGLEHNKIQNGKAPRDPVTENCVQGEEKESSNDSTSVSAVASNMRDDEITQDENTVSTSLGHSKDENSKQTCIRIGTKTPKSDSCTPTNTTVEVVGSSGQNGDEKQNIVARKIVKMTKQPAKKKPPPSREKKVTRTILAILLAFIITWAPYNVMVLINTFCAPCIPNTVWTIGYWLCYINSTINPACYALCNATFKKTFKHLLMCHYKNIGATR
Description: Upon 60 to 80% confluence, WT hM2 mAChR expressing FlpIn CHO cells were transfected transiently using polyethylenimine (Sigma-Aldrich) with 10 ng per well of each the G protein TRUPATH biosensors pcDNA5/FRT/TO-Gαi1-RLuc8/pcDNA3.1-β3/pcDNA3.1-Gγ9-GFP2 giving a ratio of 1:1:1 ratio with 30 ng in total. Cells were plated at 30,000 cells per well into 96-well Greiner CELLSTAR white-walled plates (Sigma-Aldrich). Forty-eight hours later, cells were washed with 200 μl of PBS and replaced with 1x Hanks’ balanced salt solution supplemented with 10 mM Hepes. […] The ratio was vehicle corrected using the initial four baseline measurements and then baseline corrected again using the vehicle-treated wells. Concentration-response curves were constructed from the area under the curve (AUC) of the double baseline-corrected kinetic traces and normalized to the highest AUC value in each dataset.
(§1) All data were analyzed using GraphPad Prism 9 (GraphPad Software, San Diego, CA). […] For competition binding experiments between [^3H]-NMS and a range of concentrations of unlabeled orthosteric agonist at M2 mAChR nanodiscs in the presence of G protein and for competition binding at M2 mAChR membranes, data were fit to a two-site competition binding model or a one-site competition binding model. […] Monoexponential decay and one-phase association equations were fit to the radioligand dissociation and association data at M2 mAChR nanodiscs.

M2 mAChR [2] = molecular target: T2, M2 mAChR (Homo sapiens, UniProt P08172, DEL226-389); test: [3H]-NMS interaction binding with LY211 and/or G protein at M2 mAChR nanodiscs (full interaction and titration)
T2 construct: made in house; host or cells: Sf9 insect cells (receptor, baculovirus); Trichoplusia ni Hi5 cells (G protein); E. coli BL21(DE3) (cMSP1D1 scaffold)
T2 sequence (P08172 with tags, fused parts or gaps DEL226-389): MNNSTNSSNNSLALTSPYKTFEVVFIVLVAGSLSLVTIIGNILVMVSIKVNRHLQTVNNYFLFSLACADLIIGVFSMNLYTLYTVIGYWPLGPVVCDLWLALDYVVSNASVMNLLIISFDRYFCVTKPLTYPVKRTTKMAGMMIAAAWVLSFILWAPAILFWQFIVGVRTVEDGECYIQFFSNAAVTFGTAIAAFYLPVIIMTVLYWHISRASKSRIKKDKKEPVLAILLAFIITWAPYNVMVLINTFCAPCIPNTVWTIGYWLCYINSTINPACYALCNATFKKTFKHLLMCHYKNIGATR
Description: (§2) The affinity of [^3H]-NMS for M2 mAChR in nanodiscs, as well as the concentration of receptor in nanodiscs, was determined through saturation binding with [^3H]-NMS. M2 nanodiscs were incubated with a range of concentrations of [^3H] […] Membrane equilibrium binding experiments were performed with 15 μg of membrane expressing the WT hM2 mAChR in a 300-μl reaction volume of binding buffer with or without 100 μM Gpp[NH]pp in deep 96-well plates for 6 hours at RT. […] For all radioligand binding experiments, nonspecific binding was defined by 10 μM Atr and the assay was terminated through rapid filtration through Whatman GF/B filter plates using a 96-well harvester (PerkinElmer). Filter plates were dried overnight, and radioactivity was determined by adding 40 μl of MicroScint-O scintillation fluid and counting in a MicroBeta^2 Plate Counter (PerkinElmer Life Sciences).
as §1

M2 mAChR [3] = molecular target: T2, M2 mAChR; test: [3H]-NMS competition binding at M2 mAChR nanodiscs with or without Gi1 protein
Description: as §2, §1

M2ΔICL3 mAChR = molecular target: T3, M2ΔICL3 mAChR (Homo sapiens, UniProt P08172, DEL226-389); test: ERK1/2 phosphorylation assay in M2ΔICL3 mAChR FlpIn CHO cells; format: cell-based; conditions: pERK1/2, M2ΔICL3 mAChR FlpIn CHO cells, normalized to FBS; three-parameter logistic
T3 construct: expressed in transfected cells
T3 sequence (P08172 with tags, fused parts or gaps DEL226-389): T2 sequence (P08172 with tags, fused parts or gaps DEL226-389)
Description: (§3) All data were analyzed using GraphPad Prism 9 (GraphPad Software, San Diego, CA). Concentration-response curves were fit with a three-parameter logistic equation to quantify potency (pEC50) and an operational model of agonism to derive an efficacy parameter (log τ) ([69]). […] For competition binding experiments between [^3H]-NMS and a range of concentrations of unlabeled orthosteric agonist at M2 mAChR nanodiscs in the presence of G protein and for competition binding at M2 mAChR membranes, data were fit to a two-site competition binding model or a one-site competition binding model. […] Monoexponential decay and one-phase association equations were fit to the radioligand dissociation and association data at M2 mAChR nanodiscs. Kinetic TRUPATH data were analyzed using a “baseline then rise to steady state with drift” equation ([44]).

M2 mAChR [4] = molecular target: T1, M2 mAChR; test: Kinetic Gαi1 (TRUPATH) protein activation assay in M2 mAChR CHO cells; format: cell-based; conditions: for Steady state: final effect level, normalized to ACh
Description: Upon 60 to 80% confluence, WT hM2 mAChR expressing FlpIn CHO cells were transfected transiently using polyethylenimine (Sigma-Aldrich) with 10 ng per well of each the G protein TRUPATH biosensors pcDNA5/FRT/TO-Gαi1-RLuc8/pcDNA3.1-β3/pcDNA3.1-Gγ9-GFP2 giving a ratio of 1:1:1 ratio with 30 ng in total. Cells were plated at 30,000 cells per well into 96-well Greiner CELLSTAR white-walled plates (Sigma-Aldrich). Forty-eight hours later, cells were washed with 200 μl of PBS and replaced with 1x Hanks’ balanced salt solution supplemented with 10 mM Hepes. […] Cells were further incubated for 10 min at 25°C before BRET measurements were performed on a PHERAstar FSX plate reader (BMG Labtech) using 410/80-nm and 515/30-nm filters. […] The BRET signal was calculated as the ratio of 515/30-nm emission over 410/80-nm emission. The ratio was vehicle corrected using the initial four baseline measurements and then baseline corrected again using the vehicle-treated wells. Concentration-response curves were constructed from the area under the curve (AUC) of the double baseline-corrected kinetic traces and normalized to the highest AUC value in each dataset.
as §3

M2 mAChR [5] = molecular target: T2, M2 mAChR; test: [3H]-NMS association and dissociation assays at M2 mAChR nanodiscs; format: binding
Description: The affinity of [^3H]-NMS for M2 mAChR in nanodiscs, as well as the concentration of receptor in nanodiscs, was determined through saturation binding with [^3H]-NMS. M2 nanodiscs were incubated with a range of concentrations of [^3H] NMS in a final volume of 200 μl of binding buffer [20 mM Hepes (pH 7.5), 100 mM NaCl, 10 mM MgCl2, and 0.5% bovine serum albumin] for 6 hours at RT. […] Membrane equilibrium binding experiments were performed with 15 μg of membrane expressing the WT hM2 mAChR in a 300-μl reaction volume of binding buffer with or without 100 μM Gpp[NH]pp in deep 96-well plates for 6 hours at RT. […] For all radioligand binding experiments, nonspecific binding was defined by 10 μM Atr and the assay was terminated through rapid filtration through Whatman GF/B filter plates using a 96-well harvester (PerkinElmer). Filter plates were dried overnight, and radioactivity was determined by adding 40 μl of MicroScint-O scintillation fluid and counting in a MicroBeta^2 Plate Counter (PerkinElmer Life Sciences).
as §3

[6] = saturating amount of drug alone
[7] = saturating orthosteric agonist + LY211
[8] = saturating amount of drug alone, baseline then rise to steady state with drift model

C[N+](C)(C)CC#CCOC1=NOCC1 [Ipx, iperoxo]
pEC50 (M2 mAChR [1]; Gi1 activation (BRET), M2 mAChR FlpIn CHO cells, three-parameter logistic equation): 9.18 ± 0.22 (7) | Log τ (M2 mAChR [1]): 1.61 ± 0.25 (7) | (LY211) - Log αAgonist (M2 mAChR [2]; Full interaction, − G protein heterotrimer, cooperativity between orthosteric agonist and LY211, ATCM): 2.05 ± 0.21 (4) | increase in affinity between pKi(Low) and pKi(High) (M2 mAChR [3]; M2 mAChR nanodiscs, shift promoted by Gi1): 112 fold | increase in agonist affinity in the presence of 10 μM LY211 (M2 mAChR [3]; M2 mAChR nanodiscs, without G protein): 112 fold | (G protein) - Log α (M2 mAChR [3]; Nanodisc, cooperativity between agonist and G protein (Gi1), ATCM): 2.33 ± 0.18 (3) | pKi(Low) (M2 mAChR [3]; Nanodisc, two-site competition binding model, 6 hours at RT): 7.72 ± 0.06 (11) | FracHi - M2 mAChR nanodiscs - receptor:G protein molar ratio 1:0 (M2 mAChR [3]; fraction of receptors in high-affinity state, two-site model, R:G 1:0): 0.12 ± 0.04 (11) | FracHi - M2 mAChR nanodiscs - receptor:G protein molar ratio 1:500 (M2 mAChR [3]; fraction of receptors in high-affinity state, two-site model, R:G 1:500 (Gi1)): 0.68 ± 0.06 (3) | FracHi - M2 mAChR nanodiscs - receptor:G protein molar ratio 1:1000 (M2 mAChR [3]; fraction of receptors in high-affinity state, two-site model, R:G 1:1000 (Gi1)): 0.76 ± 0.06 (3) | FracHi - M2 mAChR nanodiscs - receptor:G protein molar ratio 1:2000 (M2 mAChR [3]; fraction of receptors in high-affinity state, two-site model, R:G 1:2000 (Gi1)): 0.91 ± 0.05 (3) | pEC50 (M2ΔICL3 mAChR): 8.23 ± 0.16 | Steady state (M2 mAChR [4]; [6]): 102 ± 0.95 (3) | Steady state (M2 mAChR [4]; [7]): 114 ± 0.68 (4) | Initial rate (M2 mAChR [4]; [8]): 217 ± 6.48 (3) BRET units min^−1 | Initial rate (M2 mAChR [4]; [7]): 586 ± 26.8 (4) BRET units min^−1

Cc1c(Cl)c(OCC(=O)N2CCN(C)CC2)nc2sc(C(=O)NC3CC3)c(N)c12 [LY211, LY2119620]
Log τ (M2 mAChR [1]): 0.75 ± 0.12 (4) | (LY211) - Log αAgonist (M2 mAChR [2]; Full interaction ACh–LY211, + 1:2000 G protein heterotrimer, not different from zero (F test), constrained to zero): 0 | (LY211) - Log α[3H]-NMS (M2 mAChR [2]; Full interaction with ACh, + 1:2000 G protein heterotrimer, ATCM): −0.37 ± 0.04 (4) | Log α[3H]-NMS (M2 mAChR [2]; Titration against KD concentration of [3H]-NMS, ATCM): −0.19 ± 0.08 (3) | Log α[3H]-NMS (M2 mAChR [2]; Titration against [3H]-NMS, + 1:2000 G protein heterotrimer, ATCM): −0.81 ± 0.20 (3) | increase in the affinity of LY211 in the presence of G protein (M2 mAChR [2]; titration against [3H]-NMS, with vs without saturating Gi1): sixfold | Steady state (M2 mAChR [4]; [6]): 69.1 ± 4.22 (3) | Initial rate (M2 mAChR [4]; [8]): 198 ± 51.0 (3) BRET units min^−1

C[N+]1(C)[C@@H]2CC(OC(=O)[C@H](CO)c3ccccc3)C[C@H]1[C@@H]1O[C@@H]12 (stereo partly shown) [[^3H]-NMS, [^3H]-N-methylscopolamine]
B max (M2 mAChR [5]; +10 μM LY211): 115 ± 13.2 (3) | B max (M2 mAChR [5]; +10 μM LY211 + Gi1): 20.33 ± 4.96 (3) | B max (M2 mAChR [5]; [3H]-NMS only, maximal binding at equilibrium, one-phase association model): 131 ± 4.71 (3) | k off (M2 mAChR [5]; [3H]-NMS only, monoexponential decay): 0.150 ± 0.011 (4) min^−1
